Assay results taken from ChEMBL document CHEMBL5653631, “A Potent and Selective ULK1 Inhibitor Suppresses Autophagy and Sensitizes Cancer Cells to Nutrient Stress” (iScience, 2018).

What was measured:
[1] = biological target: T1, MAPK/MAK/MRK overlapping kinase (Homo sapiens) (UniProt Q9UQ07); experiment: Inhibition of human recombinant MOK at 40 nM in presence of ATP by radiometric assay relative to control
T1 sequence (whole entry): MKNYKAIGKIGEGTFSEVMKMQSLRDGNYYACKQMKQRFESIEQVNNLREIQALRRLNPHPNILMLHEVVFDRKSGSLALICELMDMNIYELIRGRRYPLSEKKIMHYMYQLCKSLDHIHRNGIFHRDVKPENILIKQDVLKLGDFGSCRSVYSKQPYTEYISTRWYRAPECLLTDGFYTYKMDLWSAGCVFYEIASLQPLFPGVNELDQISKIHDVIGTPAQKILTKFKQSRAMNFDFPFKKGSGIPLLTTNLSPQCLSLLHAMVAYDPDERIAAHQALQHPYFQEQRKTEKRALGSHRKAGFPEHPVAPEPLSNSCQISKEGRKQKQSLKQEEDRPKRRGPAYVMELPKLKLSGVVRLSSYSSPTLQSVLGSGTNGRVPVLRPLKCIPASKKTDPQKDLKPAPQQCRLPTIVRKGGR

[2] = biological target: T2, Tyrosine-protein kinase receptor TYRO3 (Homo sapiens) (UniProt Q06418); experiment: Inhibition of human recombinant TYRO3 at 40 nM related to control ULK1
T2 sequence (whole entry): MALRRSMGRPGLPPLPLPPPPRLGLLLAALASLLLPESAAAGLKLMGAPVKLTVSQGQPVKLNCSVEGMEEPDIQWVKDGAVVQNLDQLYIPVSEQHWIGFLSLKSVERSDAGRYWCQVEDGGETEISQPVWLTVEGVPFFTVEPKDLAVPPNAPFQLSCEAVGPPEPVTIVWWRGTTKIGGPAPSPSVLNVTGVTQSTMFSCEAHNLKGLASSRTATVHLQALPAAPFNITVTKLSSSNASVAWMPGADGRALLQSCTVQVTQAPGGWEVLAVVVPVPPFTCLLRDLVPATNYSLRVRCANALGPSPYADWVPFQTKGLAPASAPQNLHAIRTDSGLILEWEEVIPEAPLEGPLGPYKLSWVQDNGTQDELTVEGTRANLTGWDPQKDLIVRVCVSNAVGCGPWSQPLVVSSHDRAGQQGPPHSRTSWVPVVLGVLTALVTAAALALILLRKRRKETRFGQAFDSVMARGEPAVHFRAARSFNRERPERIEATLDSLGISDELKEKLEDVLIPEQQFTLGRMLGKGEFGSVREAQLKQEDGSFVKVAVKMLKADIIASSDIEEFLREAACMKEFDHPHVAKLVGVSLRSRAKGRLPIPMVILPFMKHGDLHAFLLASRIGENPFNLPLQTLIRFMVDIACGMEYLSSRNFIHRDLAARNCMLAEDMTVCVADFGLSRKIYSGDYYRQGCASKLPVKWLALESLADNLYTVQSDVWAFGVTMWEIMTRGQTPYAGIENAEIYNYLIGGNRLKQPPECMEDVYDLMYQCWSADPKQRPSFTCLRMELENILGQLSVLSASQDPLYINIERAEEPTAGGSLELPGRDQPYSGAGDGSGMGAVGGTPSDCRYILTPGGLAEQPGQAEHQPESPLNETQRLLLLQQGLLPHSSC

[3] = biological target: Casein kinase I isoform gamma-1 (Homo sapiens) (UniProt Q9HCP0); experiment: Inhibition of human recombinant CK1g1 at 40 nM in presence of ATP by radiometric assay relative to control
Casein kinase I isoform gamma-1 (Homo sapiens), sequence (Q9HCP0 whole entry, looked up, canonical isoform): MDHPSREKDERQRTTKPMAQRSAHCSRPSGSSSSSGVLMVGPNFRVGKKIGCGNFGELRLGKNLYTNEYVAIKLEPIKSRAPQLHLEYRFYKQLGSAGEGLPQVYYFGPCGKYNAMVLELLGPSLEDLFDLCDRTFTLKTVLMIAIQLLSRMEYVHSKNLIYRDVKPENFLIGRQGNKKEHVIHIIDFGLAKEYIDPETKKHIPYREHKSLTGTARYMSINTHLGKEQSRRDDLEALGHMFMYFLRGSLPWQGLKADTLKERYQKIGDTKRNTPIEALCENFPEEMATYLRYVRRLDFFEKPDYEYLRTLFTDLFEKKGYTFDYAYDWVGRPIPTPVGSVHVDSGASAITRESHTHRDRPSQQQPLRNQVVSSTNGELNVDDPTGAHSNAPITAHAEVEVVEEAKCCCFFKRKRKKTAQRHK

[4] = biological target: Serine/threonine-protein kinase MRCK beta (Homo sapiens) (UniProt Q9Y5S2); experiment: Inhibition of human recombinant MRCKb at 15 nM related to control ULK1
Serine/threonine-protein kinase MRCK beta (Homo sapiens), sequence (Q9Y5S2 whole entry): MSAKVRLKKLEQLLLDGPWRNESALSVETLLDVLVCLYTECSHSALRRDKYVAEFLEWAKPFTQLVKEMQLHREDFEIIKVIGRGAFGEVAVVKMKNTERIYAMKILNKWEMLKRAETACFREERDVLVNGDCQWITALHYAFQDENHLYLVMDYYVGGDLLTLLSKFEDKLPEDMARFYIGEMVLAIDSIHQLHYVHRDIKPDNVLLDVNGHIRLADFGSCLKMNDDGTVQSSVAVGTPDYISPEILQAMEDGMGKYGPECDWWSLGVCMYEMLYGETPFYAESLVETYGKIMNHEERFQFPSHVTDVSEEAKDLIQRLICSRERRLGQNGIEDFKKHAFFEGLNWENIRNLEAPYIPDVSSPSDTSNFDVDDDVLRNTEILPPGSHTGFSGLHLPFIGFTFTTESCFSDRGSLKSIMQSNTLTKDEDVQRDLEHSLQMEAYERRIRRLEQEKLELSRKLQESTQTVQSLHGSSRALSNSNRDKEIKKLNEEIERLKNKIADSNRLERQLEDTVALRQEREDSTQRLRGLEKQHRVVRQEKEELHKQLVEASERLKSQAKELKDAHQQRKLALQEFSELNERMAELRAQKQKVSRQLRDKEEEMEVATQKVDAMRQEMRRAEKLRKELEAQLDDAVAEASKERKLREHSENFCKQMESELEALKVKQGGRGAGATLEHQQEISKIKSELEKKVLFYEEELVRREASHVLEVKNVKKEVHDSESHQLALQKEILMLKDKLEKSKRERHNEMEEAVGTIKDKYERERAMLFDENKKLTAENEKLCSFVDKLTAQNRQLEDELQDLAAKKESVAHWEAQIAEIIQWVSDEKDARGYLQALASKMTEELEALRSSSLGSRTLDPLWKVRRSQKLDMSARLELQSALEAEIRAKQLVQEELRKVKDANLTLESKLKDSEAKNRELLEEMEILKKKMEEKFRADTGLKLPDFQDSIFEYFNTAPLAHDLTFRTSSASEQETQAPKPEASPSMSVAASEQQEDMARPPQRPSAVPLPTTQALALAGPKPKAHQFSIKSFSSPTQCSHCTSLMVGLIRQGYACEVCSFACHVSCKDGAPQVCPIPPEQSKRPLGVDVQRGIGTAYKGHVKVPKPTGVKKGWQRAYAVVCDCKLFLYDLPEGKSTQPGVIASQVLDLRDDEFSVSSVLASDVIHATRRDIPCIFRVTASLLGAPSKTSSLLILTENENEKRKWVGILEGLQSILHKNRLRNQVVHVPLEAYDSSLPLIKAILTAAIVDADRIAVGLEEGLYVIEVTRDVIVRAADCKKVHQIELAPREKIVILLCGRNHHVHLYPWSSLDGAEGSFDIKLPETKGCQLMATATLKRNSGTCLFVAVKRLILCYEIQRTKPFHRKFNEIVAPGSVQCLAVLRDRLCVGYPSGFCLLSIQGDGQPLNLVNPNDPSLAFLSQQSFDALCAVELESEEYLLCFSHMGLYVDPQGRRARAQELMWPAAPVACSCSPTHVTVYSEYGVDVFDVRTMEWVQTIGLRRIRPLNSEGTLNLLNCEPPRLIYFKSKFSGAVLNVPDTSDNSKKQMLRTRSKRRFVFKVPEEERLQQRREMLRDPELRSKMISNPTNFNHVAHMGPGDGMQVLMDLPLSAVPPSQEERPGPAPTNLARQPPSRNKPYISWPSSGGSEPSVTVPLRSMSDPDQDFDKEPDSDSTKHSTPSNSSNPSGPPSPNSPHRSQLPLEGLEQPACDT

[5] = biological target: Calcium/calmodulin-dependent protein kinase type II subunit gamma (Homo sapiens) (UniProt Q13555); experiment: Inhibition of human recombinant CaMK2g at 15 nM related to control ULK1
Calcium/calmodulin-dependent protein kinase type II subunit gamma (Homo sapiens), sequence (Q13555 whole entry): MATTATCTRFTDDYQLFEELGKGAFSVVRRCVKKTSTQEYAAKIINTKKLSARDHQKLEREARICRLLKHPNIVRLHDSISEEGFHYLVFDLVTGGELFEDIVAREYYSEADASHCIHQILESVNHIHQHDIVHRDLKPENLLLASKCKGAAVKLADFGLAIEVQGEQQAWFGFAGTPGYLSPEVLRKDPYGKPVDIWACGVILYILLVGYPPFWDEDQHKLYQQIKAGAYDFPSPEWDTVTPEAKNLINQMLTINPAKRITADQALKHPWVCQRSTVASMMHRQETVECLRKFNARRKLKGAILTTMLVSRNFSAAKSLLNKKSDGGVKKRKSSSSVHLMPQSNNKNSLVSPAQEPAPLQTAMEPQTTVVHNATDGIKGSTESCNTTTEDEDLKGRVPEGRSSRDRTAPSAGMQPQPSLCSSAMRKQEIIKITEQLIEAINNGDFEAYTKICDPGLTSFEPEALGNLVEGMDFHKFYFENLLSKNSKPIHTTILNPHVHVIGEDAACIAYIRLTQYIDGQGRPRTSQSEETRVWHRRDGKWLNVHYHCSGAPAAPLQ

[6] = biological target: Serine/threonine-protein kinase 10 (Homo sapiens) (UniProt O94804); experiment: Inhibition of human recombinant LOK at 15 nM in presence of ATP by radiometric assay relative to control
Serine/threonine-protein kinase 10 (Homo sapiens), sequence (O94804 whole entry, looked up): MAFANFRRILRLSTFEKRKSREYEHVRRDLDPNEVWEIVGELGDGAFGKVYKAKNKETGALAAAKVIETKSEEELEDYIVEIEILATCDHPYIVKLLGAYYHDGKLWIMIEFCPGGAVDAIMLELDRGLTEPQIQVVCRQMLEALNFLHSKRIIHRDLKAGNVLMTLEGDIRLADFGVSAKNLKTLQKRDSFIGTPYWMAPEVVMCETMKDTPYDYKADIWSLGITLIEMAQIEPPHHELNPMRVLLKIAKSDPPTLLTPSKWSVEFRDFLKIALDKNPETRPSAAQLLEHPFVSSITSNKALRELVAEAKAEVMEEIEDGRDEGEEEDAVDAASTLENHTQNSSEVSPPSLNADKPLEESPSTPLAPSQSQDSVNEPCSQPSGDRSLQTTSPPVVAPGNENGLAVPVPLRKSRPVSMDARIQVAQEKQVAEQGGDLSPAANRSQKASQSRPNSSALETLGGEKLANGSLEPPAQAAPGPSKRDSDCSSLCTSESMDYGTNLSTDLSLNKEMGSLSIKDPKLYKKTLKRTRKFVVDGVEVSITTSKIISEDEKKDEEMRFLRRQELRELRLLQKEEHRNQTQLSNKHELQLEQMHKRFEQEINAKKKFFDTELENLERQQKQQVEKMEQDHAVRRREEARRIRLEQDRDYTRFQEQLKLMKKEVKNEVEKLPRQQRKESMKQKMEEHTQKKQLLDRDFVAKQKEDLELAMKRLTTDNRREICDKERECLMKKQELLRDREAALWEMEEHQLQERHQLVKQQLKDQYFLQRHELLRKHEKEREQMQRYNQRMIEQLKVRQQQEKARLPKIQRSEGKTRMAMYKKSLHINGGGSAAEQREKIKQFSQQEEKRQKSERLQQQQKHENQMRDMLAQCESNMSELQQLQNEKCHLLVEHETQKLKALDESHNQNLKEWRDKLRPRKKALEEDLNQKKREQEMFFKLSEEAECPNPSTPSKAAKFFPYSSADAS

[7] = biological target: Cyclin-dependent kinase 9 (Homo sapiens) (UniProt P50750); experiment: Inhibition of human recombinant CDK9 at 15 nM related to control ULK1
[8] = biological target: Dual specificity mitogen-activated protein kinase kinase 1 (Homo sapiens) (UniProt Q02750); experiment: Inhibition of human recombinant MAP2K1 at 500 nM in presence of ATP by radiometric assay relative to control
Dual specificity mitogen-activated protein kinase kinase 1 (Homo sapiens), sequence (Q02750 whole entry): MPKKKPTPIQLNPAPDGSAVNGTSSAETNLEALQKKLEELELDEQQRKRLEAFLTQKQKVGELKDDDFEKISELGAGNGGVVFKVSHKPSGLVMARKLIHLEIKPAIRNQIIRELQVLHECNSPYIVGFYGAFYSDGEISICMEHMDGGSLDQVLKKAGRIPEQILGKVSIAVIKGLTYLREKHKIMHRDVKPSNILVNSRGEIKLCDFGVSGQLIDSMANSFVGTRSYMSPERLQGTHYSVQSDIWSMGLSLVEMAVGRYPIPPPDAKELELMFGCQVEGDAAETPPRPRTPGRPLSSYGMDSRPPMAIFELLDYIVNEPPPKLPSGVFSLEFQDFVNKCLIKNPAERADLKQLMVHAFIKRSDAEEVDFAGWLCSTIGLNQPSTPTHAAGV

[9] = biological target: T3, Serine/threonine-protein kinase haspin (Homo sapiens) (UniProt Q8TF76); experiment: Inhibition of human recombinant Haspin at 500 nM related to control ULK1
T3 sequence (whole entry): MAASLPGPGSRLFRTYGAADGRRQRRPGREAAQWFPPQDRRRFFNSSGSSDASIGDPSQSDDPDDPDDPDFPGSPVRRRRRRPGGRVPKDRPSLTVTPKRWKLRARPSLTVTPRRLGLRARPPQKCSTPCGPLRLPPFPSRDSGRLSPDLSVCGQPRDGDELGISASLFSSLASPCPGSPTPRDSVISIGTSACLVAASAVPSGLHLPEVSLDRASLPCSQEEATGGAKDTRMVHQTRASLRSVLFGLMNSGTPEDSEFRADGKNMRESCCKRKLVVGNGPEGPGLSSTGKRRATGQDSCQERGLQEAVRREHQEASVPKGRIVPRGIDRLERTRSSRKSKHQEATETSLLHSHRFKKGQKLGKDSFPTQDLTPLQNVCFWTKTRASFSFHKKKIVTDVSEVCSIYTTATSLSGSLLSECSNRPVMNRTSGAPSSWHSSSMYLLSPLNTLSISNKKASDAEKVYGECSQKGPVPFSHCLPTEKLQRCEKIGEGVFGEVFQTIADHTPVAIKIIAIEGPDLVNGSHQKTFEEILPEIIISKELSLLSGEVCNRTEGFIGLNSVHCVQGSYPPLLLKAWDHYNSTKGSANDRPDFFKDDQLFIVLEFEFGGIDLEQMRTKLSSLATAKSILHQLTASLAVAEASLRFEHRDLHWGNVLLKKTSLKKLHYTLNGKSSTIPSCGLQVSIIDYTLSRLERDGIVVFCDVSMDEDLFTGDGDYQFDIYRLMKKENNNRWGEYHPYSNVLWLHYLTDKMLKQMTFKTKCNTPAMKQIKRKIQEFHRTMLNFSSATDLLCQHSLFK

[10] = biological target: Dual specificity mitogen-activated protein kinase kinase 2 (Homo sapiens) (UniProt P36507); experiment: Inhibition of human recombinant MAP2K2 at 500 nM in presence of ATP by radiometric assay relative to control
Dual specificity mitogen-activated protein kinase kinase 2 (Homo sapiens), sequence (P36507 whole entry): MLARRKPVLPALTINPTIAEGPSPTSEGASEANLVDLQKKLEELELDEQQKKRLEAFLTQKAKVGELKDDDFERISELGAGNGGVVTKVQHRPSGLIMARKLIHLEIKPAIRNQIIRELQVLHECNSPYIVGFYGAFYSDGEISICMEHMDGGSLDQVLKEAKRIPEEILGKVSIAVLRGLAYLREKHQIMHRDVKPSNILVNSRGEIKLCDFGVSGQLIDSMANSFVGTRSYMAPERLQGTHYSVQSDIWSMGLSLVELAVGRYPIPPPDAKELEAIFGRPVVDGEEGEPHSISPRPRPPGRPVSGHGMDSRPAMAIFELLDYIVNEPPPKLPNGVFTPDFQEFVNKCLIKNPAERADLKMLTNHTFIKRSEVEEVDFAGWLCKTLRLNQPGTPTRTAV

[11] = biological target: G protein-coupled receptor kinase 5 (Homo sapiens) (UniProt P34947); experiment: Inhibition of human recombinant GPRK5 at 500 nM in presence of ATP by radiometric assay relative to control
G protein-coupled receptor kinase 5 (Homo sapiens), sequence (P34947 whole entry, looked up): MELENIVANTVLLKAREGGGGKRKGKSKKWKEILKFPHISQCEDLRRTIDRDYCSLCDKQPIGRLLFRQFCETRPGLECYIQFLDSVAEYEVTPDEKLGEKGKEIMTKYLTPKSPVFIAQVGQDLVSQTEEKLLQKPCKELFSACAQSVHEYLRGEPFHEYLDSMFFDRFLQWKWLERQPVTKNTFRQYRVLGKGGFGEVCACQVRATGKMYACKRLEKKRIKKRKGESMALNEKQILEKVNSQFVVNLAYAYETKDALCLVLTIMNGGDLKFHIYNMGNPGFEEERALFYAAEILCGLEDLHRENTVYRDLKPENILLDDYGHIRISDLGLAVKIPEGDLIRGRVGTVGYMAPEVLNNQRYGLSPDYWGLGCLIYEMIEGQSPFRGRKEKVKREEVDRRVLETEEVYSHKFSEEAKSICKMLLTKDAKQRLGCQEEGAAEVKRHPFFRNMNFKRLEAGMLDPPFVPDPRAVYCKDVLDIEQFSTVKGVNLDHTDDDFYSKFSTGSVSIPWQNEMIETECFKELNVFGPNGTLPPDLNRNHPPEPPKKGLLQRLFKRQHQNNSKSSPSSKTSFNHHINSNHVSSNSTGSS

`O=C(N[C@@H](C1CC1)C(F)(F)F)c1cc(-c2cnn3cc(-c4ccc(F)cc4)cnc23)cs1` showed an inhibition [1] of 0%, a fold change (FC) [2] of 0 and an inhibition [3] of 0%.

With `CC(C)[C@H](NC(=O)c1cc(-c2cnn3cc(-c4ccc(OCCN5CCCCC5)cc4)cnc23)cs1)C(F)(F)F` the fold change (FC) [4] was 0.07, the fold change (FC) [5] was 0.25 and the inhibition [6] was 0%. For the same compound, the fold change (FC) [7] was 0.

`CNC(=O)c1ccccc1Oc1nc(Nc2cc(OC)c(OC)c(OC)c2)ncc1Br` was tested, and the inhibition [8] was 0%, the fold change (FC) [9] was 0 and the inhibition [10] was 0%. The inhibition [11] was 1%.
